The values that follow come from patent US9693983B2, “Use of glyceryl trinitrate for treating traumatic edema” (G. Pohl-Boskamp GmbH & Co. KG, priority 2010, dated 2017).

Molecules are shown by their SMILES.

In this test the test system is traumatic edema. The experiment in a line: Topical application of GTN to traumatic edema, general observation. In kind it is in vivo. The source says: The detumescence of the swelling associated with a traumatic edema is accelerated; instead of darkening of the skin, the healing occurs with a green, followed by a yellow, coloration of the affected skin area.

As for `O=[N+]([O-])OCC(CO[N+](=O)[O-])O[N+](=O)[O-]` [GTN, glyceryl trinitrate], the “typical swelling and darkening of the affected skin sites” value (1.2 to 6 mg GTN on day of injury, then 0.8 to 1.6 mg GTN daily, topical) is listed as “reduces and/or prevents”. For the same molecule, for the setting “compared to an untreated edema”, the individual healing phases entry was “significantly shortened” and the “reduction of overall healing period for the treated edemas” value is recorded as “one-half”. The “healing of traumatic edema” value (topically applied) was “greatly accelerates”.
